Experimental data: US20220211606A1, “LIQUID COMPOSITION FOR INFLUENCING THE MICROBIOTA ON A SUBJECT'S SKIN COMPRISING CHITOSAN” (Medoderm GmbH, priority 2019, published 2022)

How the values were obtained:
Staphylococcus aureus [1] = test: Microbiome agar matrix test, surface pathogen; assay type: cell-based; details: 20 μl on agar surface; 37° C. over night; inoculum 2.0×10^6 CFU
Experimental: For the present experiment, the above microbiome organisms are seeded out on an agar plate. Afterwards the organisms are embedded in a special microbiome agar matrix to simulate the epidermis layers. […] In the next step the test formulation is applied onto small areas on the surface and the test setup is incubated at 37° C. over night. After incubation, growth of the matrix-embedded microbiome organisms and superficial Staphylococcus aureus is used for the assessment of an influence of the test formulation on the microbiome organisms. […] If the applied product also causes a growth inhibition of the microbiome organisms, the product is assessed to have negative influence on the human microbiome. A disinfectant agent (isopropanol:water 70:30) is used as […] to inhibit growth of the pathogen as well as the microbiome organisms. Buffer solution (used for dilution, if applied; 0.9% (w/w) NaCl in water) is used as a negative control. The sample volume of test formulation is 20 μl. The inoculum microbiome contains 2.0×10^6 CFU (colony forming units). The inoculum pathogen was set at 2.0×10^6 CFU.

[2] = tested on: endogenous skin microflora; test: Repopulation of disinfected human skin after contact with worn clothing (Rodac contact plates); assay type: in vivo; details: after 6 h test period, 10 minutes contact with worn clothing, sampled 1 h after removal
Experimental: The test germ corresponded to endogenous skin microflora. […] The sample size was approx. 50 cm^2 skin surface area and the sample volume 100 μl. Contact time was 0, 1 h, 2 h, 4 h, 6 h, after contact and 1 h after contact.
Rodac contact plates were used for sampling of microorganisms from human skin (upper arm) before and after treatment. The upper arm region was chosen to prevent contamination by touching and clothing. Disinfection was performed with 70% isopropanol.
After the 6 h test period, the test areas were exposed to worn clothing for 10 minutes, resulting in a typical transfer of microorganism from clothing to the skin surface (time point directly after contact). 1 h after removal of clothing the bacteria were collected from the test areas aby Rodac contact plates.

Staphylococcus aureus [3] = test: Repopulation of disinfected human skin (Rodac contact plates), pathogen; assay type: in vivo; details: upper arm disinfected with 70% isopropanol; 0, 1 h, 2 h, 4 h, 6 h; 100 μl on approx. 50 cm^2

CC(C)O [Disinfection, isopropanol]
growth of superficial Staphylococcus aureus (Staphylococcus aureus [1]): neither growth on the surface
microorganisms collected 1 h after exposure to worn clothing [2]: also showed pathogenic organisms (gram-negative bacteria=big colonies)
Staphylococcus aureus on the test area (Staphylococcus aureus [3]): only found on the “Disinfection” test area
